Measured values reported in patent US9127303B2, “Method for detection of beta-D-glucuronidase activity in a sample” (Biosynth AG, priority 2011, dated 2015).

Legend:
[1] = test system: beta-D-glucuronidase positive strains (Escherichia coli); assay: Detection of microbial beta-D-glucuronidase activity in broth cultures in microtiter plates; assay type: cell-based; conditions: NB, 0.1 mM, 37° C., 20 hours; for Fluorescence (excitation 570 nm, emission 600 nm) over time: about 10 cfu
Protocol: (§1) Fluorescence in arbitrary units (RFU, relative fluorescence units) is plotted vs. time (h).
(§2) Wells of a microtiter plate were filled with Nutrient Broth (NB: 5 g/l peptone, 5 g/l NaCl, 2 g/l yeast extract, 1 g/l beef extract, pH 7.4) containing Resorufin-beta-D-glucuronic acid or Resorufin-beta-D-glucuronic acid methyl ester at concentrations of 0.1 mM. The wells were inoculated with about 10 cfu of cultures pregrown over night on NB and incubated at 37° C. for 20 hours. Fluorescence was measured every 20 minutes at an excitation wavelength of 570 nm and an emission wavelength of 600 nm (FIG. 1).

E. coli culture = assay: Detection of microbial beta-D-glucuronidase in preincubated medium; assay type: cell-based; conditions: NB with 0.2 mM, preincubated 21 h, 3.5 h, 0 h at 37° C., E. coli about 10^8 cfu/ml
Protocol: (§3) The media with the Resorufin-beta-D-glucuronic acid methyl ester were preincubated for different time periods. Measurements were done in microtiter plates at 37° C. in a Spectramax M5 platereader (λex=570 nm, λem=600 nm). Fluorescence in arbitrary units (RFU, relative fluorescence units) is plotted vs. time (min).
(§4) Wells of a microtiter plate were filled with 100 μl Nutrient Broth (NB: 5 g/l peptone, 5 g/l NaCl, 2 g/l yeast extract, 1 g/l beef extract, pH 7.4) containing Resorufin-beta-D-glucuronic acid or Resorufin-beta-D-glucuronic acid methyl ester at concentrations of 0.2 mM. The wells were incubated for different times (21 h, 3.5 h, 0 h) at 37° C. After incubation, 100 μl of an E. coli culture pregrown over night on NB was added (about 10^8 cfu/ml). Fluorescence was measured every 1.5 minutes at an excitation wavelength of 570 nm and an emission wavelength of 600 nm (FIG. 3). The longer the preincubation time of the medium, the more Resorufin-beta-D-glucuronic acid originated from the Resorufin-beta-D-glucuronic acid methyl ester through hydrolysis.

[2] = biological target: beta-D-glucuronidase (type VII-A from E. coli) (Escherichia coli, UniProt P05804); assay: Enzymatic assay with purified beta-D-glucuronidase; assay type: biochemical; conditions: 0.1 mM, pH 6.8, 37° C., 1 hour
Protocol: as §3, with “Resorufin-beta-D-glucuronic acid or” for “The media with the”, “was incubated in presence of glucuronidase, esterase, both enzymes or without enzyme.” for “were preincubated for different time periods.”
(§5) Wells of a microtiter plate were filled with buffer (35 mM potassium phosphate, 4.7 mg/ml bovine serum albumin, pH 6.8) containing Resorufin-beta-D-glucuronic acid or Resorufin-beta-D-glucuronic acid methyl ester at concentrations of 0.1 mM. To the wells were added either a) 0.3 unit beta-D-glucuronidase (type VII-A from E. coli) or b) 10 units esterase (from porcine liver) or c) 0.3 unit beta-D-glucuronidase and 10 units esterase or d) no enzyme. The microtiter plate was incubated at 37° C. for 1 hour. Fluorescence was measured every 1.5 minutes at an excitation wavelength of 570 nm and an emission wavelength of 600 nm (FIG. 2).

[3] = test system: esterase (from porcine liver); assay: Enzymatic assay with esterase only; assay type: biochemical; conditions: 10 units esterase only, 0.1 mM, pH 6.8, 37° C., 1 hour
Protocol: as §3, with “Resorufin-beta-D-glucuronic acid or” for “The media with the”, “was incubated in presence of glucuronidase, esterase, both enzymes or without enzyme.” for “were preincubated for different time periods.”
as §5

[4] = test system: beta-D-glucuronidase negative strains; assay: Detection of microbial beta-D-glucuronidase activity in broth cultures in microtiter plates; assay type: cell-based, Citrobacter freundii, Salmonella enteritidis; conditions: NB, 0.1 mM, 37° C., 20 hours
Protocol: as §1, §2

[5] = Hydrolysis of the methyl ester in Nutrient Broth medium; assay type: physicochemical; conditions: pH 7.4, 37° C.
Protocol: as §4

Staphylococcus aureus = assay: Detection of microbial beta-D-glucuronidase in broth cultures in test tubes; assay type: cell-based; parameters: key: positive (pink colour); negative (yellow colour); conditions: 1 strain, NB, 0.1 mM, 37° C., 16 hours
Protocol: (§6) Resorufin-beta-D-glucuronic acid or Resorufin-beta-D-glucuronic acid methyl ester was added to test tubes containing 3 ml of Nutrient Broth (NB: 5 g/l peptone, 5 g/l NaCl, 2 g/l yeast extract, 1 g/l beef extract, pH 7.4) or Tryptone Bile Broth (TBB: 20 g/l tryptone, 1.5 g/l bile salts No. 3) at a concentration of 0.1 mM. Tubes were inoculated with cultures pregrown over night on NB and incubated at 37° C. for 16 hours. Tubes were scored visually for beta-D-glucuronidase activity as positive (pink colour) or negative (yellow colour). Both substrates gave the same results for all strains tested (Table 1), showing that the Resorufin-beta-D-glucuronic acid methyl ester can be used in place of the Resorufin-beta-D-glucuronic acid for detection of E. coli.

Bacillus cereus = assay: as above; assay type: cell-based; parameters: key: positive (pink colour); negative (yellow colour); conditions: 1 strain, NB, 0.1 mM, 37° C., 16 hours
Protocol: as §6

Serratia marcescens = assay: as above; assay type: cell-based; parameters: key: positive (pink colour); negative (yellow colour); conditions: 1 strain, TBB, 0.1 mM, 37° C., 16 hours
Protocol: as §6

Salmonella Enteritidis = assay: as above; assay type: cell-based; parameters: key: positive (pink colour); negative (yellow colour); conditions: 1 strain, TBB, 0.1 mM, 37° C., 16 hours
Protocol: as §6

Enterobacter cloacae = assay: as above; assay type: cell-based; parameters: key: positive (pink colour); negative (yellow colour); conditions: 1 strain, NB, 0.1 mM, 37° C., 16 hours
Protocol: as §6

Escherichia coli = assay: as above; assay type: cell-based; parameters: key: positive (pink colour); negative (yellow colour); conditions: 19 strains, TBB, 0.1 mM, 37° C., 16 hours
Protocol: as §6

Escherichia coli O157:H7 = assay: as above; assay type: cell-based; parameters: key: positive (pink colour); negative (yellow colour); conditions: Escherichia coli O157:H7, 2 strains, TBB, 0.1 mM, 37° C., 16 hours
Protocol: as §6

Enterobacter aerogenes = assay: as above; assay type: cell-based; parameters: key: positive (pink colour); negative (yellow colour); conditions: 1 strain, TBB, 0.1 mM, 37° C., 16 hours
Protocol: as §6

Acinetobacter baumanii = assay: as above; assay type: cell-based; parameters: key: positive (pink colour); negative (yellow colour); conditions: 1 strain, NB, 0.1 mM, 37° C., 16 hours
Protocol: as §6

Hafnia alvei = assay: as above; assay type: cell-based; parameters: key: positive (pink colour); negative (yellow colour); conditions: 1 strain, NB, 0.1 mM, 37° C., 16 hours
Protocol: as §6

Proteus vulgaris = assay: as above; assay type: cell-based; parameters: key: positive (pink colour); negative (yellow colour); conditions: 1 strain, NB, 0.1 mM, 37° C., 16 hours
Protocol: as §6

Vibrio parahaemolyticus = assay: as above; assay type: cell-based; parameters: key: positive (pink colour); negative (yellow colour); conditions: 1 strain, NB, 0.1 mM, 37° C., 16 hours
Protocol: as §6

Citrobacter freundii = assay: as above; assay type: cell-based; parameters: key: positive (pink colour); negative (yellow colour); conditions: 1 strain, TBB, 0.1 mM, 37° C., 16 hours
Protocol: as §6

Salmonella Typhimurium = assay: as above; assay type: cell-based; parameters: key: positive (pink colour); negative (yellow colour); conditions: 1 strain, NB, 0.1 mM, 37° C., 16 hours
Protocol: as §6

Pseudomonas aeruginosa = assay: as above; assay type: cell-based; parameters: key: positive (pink colour); negative (yellow colour); conditions: 1 strain, TBB, 0.1 mM, 37° C., 16 hours
Protocol: as §6

Enterococcus faecalis = assay: as above; assay type: cell-based; parameters: key: positive (pink colour); negative (yellow colour); conditions: 1 strain, TBB, 0.1 mM, 37° C., 16 hours
Protocol: as §6

Yersinia enterocolitica = assay: as above; assay type: cell-based; parameters: key: positive (pink colour); negative (yellow colour); conditions: 1 strain, NB, 0.1 mM, 37° C., 16 hours
Protocol: as §6

Klebsiella pneumoniae = assay: as above; assay type: cell-based; parameters: key: positive (pink colour); negative (yellow colour); conditions: 1 strain, TBB, 0.1 mM, 37° C., 16 hours
Protocol: as §6

[6] = test system: Staphylococcus haemolyticus; assay: as above; assay type: cell-based; parameters: key: positive (pink colour); negative (yellow colour); conditions: 1 strain, NB, 0.1 mM, 37° C., 16 hours
Protocol: as §6

Aeromonas hydrophila = assay: as above; assay type: cell-based; parameters: key: positive (pink colour); negative (yellow colour); conditions: 1 strain, TBB, 0.1 mM, 37° C., 16 hours
Protocol: as §6

[7] = 0.3 unit beta-D-glucuronidase and 10 units esterase
[8] = 0.3 unit beta-D-glucuronidase without esterase

Chain of beta-D-glucuronidase (type VII-A from E. coli) (P05804 whole entry): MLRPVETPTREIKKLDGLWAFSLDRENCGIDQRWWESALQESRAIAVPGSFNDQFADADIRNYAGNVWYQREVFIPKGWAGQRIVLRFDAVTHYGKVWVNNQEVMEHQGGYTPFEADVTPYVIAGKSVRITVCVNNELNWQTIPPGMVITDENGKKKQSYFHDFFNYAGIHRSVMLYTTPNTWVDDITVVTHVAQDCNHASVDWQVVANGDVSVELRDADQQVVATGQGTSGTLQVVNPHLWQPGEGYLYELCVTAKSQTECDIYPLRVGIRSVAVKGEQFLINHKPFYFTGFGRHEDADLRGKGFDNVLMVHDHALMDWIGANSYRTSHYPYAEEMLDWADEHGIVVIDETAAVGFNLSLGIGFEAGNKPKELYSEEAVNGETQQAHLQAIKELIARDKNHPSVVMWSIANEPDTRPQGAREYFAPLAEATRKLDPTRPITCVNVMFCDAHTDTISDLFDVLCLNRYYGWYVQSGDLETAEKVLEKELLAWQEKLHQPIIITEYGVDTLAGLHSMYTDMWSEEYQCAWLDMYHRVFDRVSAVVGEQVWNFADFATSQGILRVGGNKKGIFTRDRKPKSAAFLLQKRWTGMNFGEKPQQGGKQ

| SMILES | Fluorescence (excitation 570 nm, emission 600 nm) over time [1] | Fluorescence (excitation 570 nm, emission 600 nm) over time [2, 7] | Fluorescence (excitation 570 nm, emission 600 nm) over time [2, 8] | Fluorescence (excitation 570 nm, emission 600 nm) over time [3] | Fluorescence (excitation 570 nm, emission 600 nm) over time [4] | Result, beta-D-glucuronidase activity scored visually (Staphylococcus aureus) | Result, beta-D-glucuronidase activity scored visually (Bacillus cereus) | Result, beta-D-glucuronidase activity scored visually (Serratia marcescens) | Result, beta-D-glucuronidase activity scored visually (Salmonella Enteritidis) | Result, beta-D-glucuronidase activity scored visually (Enterobacter cloacae) | Result, beta-D-glucuronidase activity scored visually (Escherichia coli) | Result, beta-D-glucuronidase activity scored visually (Escherichia coli O157:H7) | Result, beta-D-glucuronidase activity scored visually (Enterobacter aerogenes) | Result, beta-D-glucuronidase activity scored visually (Acinetobacter baumanii) | Result, beta-D-glucuronidase activity scored visually (Hafnia alvei) | Result, beta-D-glucuronidase activity scored visually (Proteus vulgaris) | Result, beta-D-glucuronidase activity scored visually (Vibrio parahaemolyticus) | Result, beta-D-glucuronidase activity scored visually (Citrobacter freundii) | Result, beta-D-glucuronidase activity scored visually (Salmonella Typhimurium) | Result, beta-D-glucuronidase activity scored visually (Pseudomonas aeruginosa) | other results |
| --- | --- | --- | --- | --- | --- | --- | --- | --- | --- | --- | --- | --- | --- | --- | --- | --- | --- | --- | --- | --- | --- |
| COC(=O)[C@H]1O[C@@H](Oc2ccc3nc4ccc(=O)cc-4oc3c2)[C@H](O)[C@@H](O)[C@@H]1O [Resorufin-beta-D-glucuronic acid methyl ester] | increase in fluorescence | fast increase of fluorescence | only a slow increase of fluorescence | low background signal | only low background signal | negative | negative | negative | negative | negative | positive | negative | negative | negative | negative | negative | negative | negative | negative | negative | Speed of increase in fluorescence compared with Resorufin-beta-D-glucuronic acid [1]: a little slower; Fluorescence signal after adding E. coli culture, compared with Resorufin-beta-D-glucuronic acid medium (E. coli culture): gets closer to the signal from media originally containing the Resorufin-beta-D-glucuronic acid with longer preincubation time; Hydrolysis of the methyl ester to Resorufin-beta-D-glucuronic acid in medium [5]: surprisingly fast; Result, beta-D-glucuronidase activity scored visually (Enterococcus faecalis): negative; Result, beta-D-glucuronidase activity scored visually (Yersinia enterocolitica): negative; Result, beta-D-glucuronidase activity scored visually (Klebsiella pneumoniae): negative; Result, beta-D-glucuronidase activity scored visually [6]: negative; Result, beta-D-glucuronidase activity scored visually (Aeromonas hydrophila): negative |
| O=C([O-])C1OC(Oc2ccc3nc4ccc(=O)cc-4oc3c2)C(O)C(O)C1O.[Na+] [Resorufin-beta-D-glucuronic acid, reference compound] | increase in fluorescence | fast increase of fluorescence | fast increase of fluorescence | low background signal | only low background signal | negative | negative | negative | negative | negative | positive | negative | negative | negative | negative | negative | negative | negative | negative | negative | Result, beta-D-glucuronidase activity scored visually (Enterococcus faecalis): negative; Result, beta-D-glucuronidase activity scored visually (Yersinia enterocolitica): negative; Result, beta-D-glucuronidase activity scored visually (Klebsiella pneumoniae): negative; Result, beta-D-glucuronidase activity scored visually [6]: negative; Result, beta-D-glucuronidase activity scored visually (Aeromonas hydrophila): negative |
